From patent EP2703005A1, “Inhibitors of alpha6 Integrin/E-Cadherin Complex” (Università Degli Studi Di Torino, priority 2012, dated 2014)

Tests used:
LS-174T cells = test: Hepatic colonization model, intrahepatic injection of CRC cells; assay type: in vivo, CD-1 nude mice; settings: 5x10^6 cells/mouse injected with 100 µM soluble peptide, 14 days, versus vehicle
Protocol: Animal models of human metastatic CRC. Six-week female CD1-nude mice were purchased from Charles River (Lecco, Italy). Animals were subjected to intraperitoneal anaesthesia with a mixture composed by 0.75 mg/ml xylazine (Xilor®, BIO98, Milan, Italy), 1 mg/ml tiletamine - 1mg/ml zolazepam (Zoletil®, Virbac, Milan, Italy), in physiological solution. After the mice were deeply asleep, a midline incision was performed and target organs were gently exposed. Two or five million suspended cells were injected in 50 µl of culture medium intrasplenically (Tibbettset al. 1993. Cancer, 71:315-321) or into the median liver lobe (Grothey, et al. 2009. Nat Rev Clin Oncol, 6:507-518), respectively. To investigate a pharmacological intervention on liver homing and/or colonization of CRC cells, animals were divided in two arms, receiving medium alone (vehicle) or supplemented with 100 µM […] peptide. The wound was closed by a double suture and each animal was given 0.1 mg caprofen (Rymadil®, Pfizer, Milan, Italy) in a physiological solution to allow post-operative pain relief and rehydration. Mice were strictly monitored until completely awake, and oral ampicillin was administered for 5 days following the surgery. […] External metastatic areas were quantified using ImageJ software.

LS-174T = test: Liver homing model, intrasplenic implantation; assay type: in vivo, CD-1 nude mice; settings: 2x10^6/mouse intrasplenically with 100 µM soluble peptide, versus vehicle
Protocol: (§1) Animal models of human metastatic CRC. Six-week female CD1-nude mice were purchased from Charles River (Lecco, Italy). Animals were subjected to intraperitoneal anaesthesia with a mixture composed by 0.75 mg/ml xylazine (Xilor®, BIO98, Milan, Italy), 1 mg/ml tiletamine - 1mg/ml zolazepam (Zoletil®, Virbac, Milan, Italy), in physiological solution. After the mice were deeply asleep, a midline incision was performed and target organs were gently exposed. Two or five million suspended cells were injected in 50 µl of culture medium intrasplenically (Tibbettset al. 1993. Cancer, 71:315-321) or into the median liver lobe (Grothey, et al. 2009. Nat Rev Clin Oncol, 6:507-518), respectively. To investigate a pharmacological intervention on liver homing and/or colonization of CRC cells, animals were divided in two arms, receiving medium alone (vehicle) or supplemented with 100 µM […] peptide. The wound was closed by a double suture and each animal was given 0.1 mg caprofen (Rymadil®, Pfizer, Milan, Italy) in a physiological solution to allow post-operative pain relief and rehydration. Mice were strictly monitored until completely awake, and oral ampicillin was administered for 5 days following the surgery. Mice were euthanized at the indicated time points, and organs were photographed with a PL-200 digital photocamera (Samsung Electronics, Milan, Italy). External metastatic areas were quantified using ImageJ software.

HCCM-1544 = test: Liver homing model, intrasplenic implantation; assay type: in vivo, CD-1 nude mice; settings: 2x10^6/mouse intrasplenically with 100 µM soluble peptide, versus vehicle
Protocol: as §1

HCT-116m [1] = test: Liver homing model, intrasplenic implantation; assay type: in vivo, CD-1 nude mice; settings: 2x10^6/mouse intrasplenically with 100 µM soluble peptide, versus vehicle; 20 days
Protocol: as §1

DLD-1 [2] = test: Liver homing model, intrasplenic implantation; assay type: in vivo, CD-1 nude mice; settings: 2x10^6/mouse intrasplenically with 100 µM soluble peptide, versus vehicle; effect stated as not significant in this model
Protocol: as §1

SW-48 [3] = test: Liver homing model, intrasplenic implantation; assay type: in vivo, CD-1 nude mice; settings: 2x10^6/mouse intrasplenically with 100 µM soluble peptide, versus vehicle
Protocol: as §1

α6 integrin/E-cadherin = target: T1, α6 integrin/E-cadherin (Homo sapiens, UniProt P12830+P23229); test: Confocal imaging of α6 integrin and E-cadherin in explanted liver tumor tissues; assay type: in vivo, CD-1 nude mice; settings: LS-174T liver tumors, cells injected with soluble peptide, 14 days
T1 construct: subjected to immunostaining with anti-α6 integrin and anti-E-cadherin antibodies followed by confocal microscopic imaging; endogenous in cells; host or cells: human CRC cells (LS-174T; also HCT-116m, SW-48, DLD-1, HT-29) xenografted into the liver of CD-1 nude mice
T1 sequence (P23229 24-1073 isoform P23229-2 limits assumed): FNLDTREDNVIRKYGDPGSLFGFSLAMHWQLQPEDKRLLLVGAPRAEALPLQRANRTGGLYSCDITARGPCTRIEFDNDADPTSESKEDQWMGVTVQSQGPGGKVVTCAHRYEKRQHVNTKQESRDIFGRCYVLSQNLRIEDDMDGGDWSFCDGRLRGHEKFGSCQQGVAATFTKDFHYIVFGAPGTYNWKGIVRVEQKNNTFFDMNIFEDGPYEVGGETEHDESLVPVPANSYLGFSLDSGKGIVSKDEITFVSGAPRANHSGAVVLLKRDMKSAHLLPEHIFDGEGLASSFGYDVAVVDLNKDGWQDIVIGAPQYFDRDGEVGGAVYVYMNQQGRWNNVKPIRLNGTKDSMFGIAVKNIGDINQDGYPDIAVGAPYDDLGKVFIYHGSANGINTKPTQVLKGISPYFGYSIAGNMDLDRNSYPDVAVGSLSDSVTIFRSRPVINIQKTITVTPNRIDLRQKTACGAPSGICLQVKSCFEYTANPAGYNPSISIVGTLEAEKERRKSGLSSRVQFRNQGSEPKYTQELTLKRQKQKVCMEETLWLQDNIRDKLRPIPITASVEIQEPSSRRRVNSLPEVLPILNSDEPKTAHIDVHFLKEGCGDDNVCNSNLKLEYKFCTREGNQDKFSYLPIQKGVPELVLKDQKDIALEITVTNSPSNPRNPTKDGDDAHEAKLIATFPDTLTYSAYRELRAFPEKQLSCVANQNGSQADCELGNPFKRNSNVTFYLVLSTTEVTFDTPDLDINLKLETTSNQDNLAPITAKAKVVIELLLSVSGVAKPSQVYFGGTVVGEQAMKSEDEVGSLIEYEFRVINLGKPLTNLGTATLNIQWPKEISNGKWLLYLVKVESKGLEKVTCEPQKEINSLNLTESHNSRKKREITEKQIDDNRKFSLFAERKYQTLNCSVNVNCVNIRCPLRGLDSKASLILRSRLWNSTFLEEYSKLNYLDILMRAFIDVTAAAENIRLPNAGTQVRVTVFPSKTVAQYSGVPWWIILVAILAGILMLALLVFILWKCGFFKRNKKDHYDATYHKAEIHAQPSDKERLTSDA
T1 sequence (P12830 155-882): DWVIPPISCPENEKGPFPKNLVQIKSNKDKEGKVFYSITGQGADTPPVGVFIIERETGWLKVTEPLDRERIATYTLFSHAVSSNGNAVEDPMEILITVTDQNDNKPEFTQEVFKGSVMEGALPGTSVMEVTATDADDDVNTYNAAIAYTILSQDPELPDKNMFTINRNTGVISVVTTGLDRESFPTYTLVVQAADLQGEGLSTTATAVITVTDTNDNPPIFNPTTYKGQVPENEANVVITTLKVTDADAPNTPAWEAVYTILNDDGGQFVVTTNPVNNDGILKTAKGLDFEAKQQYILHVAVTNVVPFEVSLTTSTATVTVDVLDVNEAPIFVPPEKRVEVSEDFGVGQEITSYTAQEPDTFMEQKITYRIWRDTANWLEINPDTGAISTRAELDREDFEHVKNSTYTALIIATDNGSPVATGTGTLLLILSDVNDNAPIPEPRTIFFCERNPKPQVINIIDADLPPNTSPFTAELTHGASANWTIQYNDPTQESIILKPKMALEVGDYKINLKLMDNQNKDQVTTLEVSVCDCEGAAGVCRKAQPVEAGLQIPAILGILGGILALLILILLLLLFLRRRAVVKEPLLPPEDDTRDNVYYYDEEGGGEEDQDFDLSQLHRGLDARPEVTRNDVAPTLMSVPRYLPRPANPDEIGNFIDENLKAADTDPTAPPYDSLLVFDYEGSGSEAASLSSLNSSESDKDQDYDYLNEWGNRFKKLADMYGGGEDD
T1 sequence (P16144 28-1822 partner): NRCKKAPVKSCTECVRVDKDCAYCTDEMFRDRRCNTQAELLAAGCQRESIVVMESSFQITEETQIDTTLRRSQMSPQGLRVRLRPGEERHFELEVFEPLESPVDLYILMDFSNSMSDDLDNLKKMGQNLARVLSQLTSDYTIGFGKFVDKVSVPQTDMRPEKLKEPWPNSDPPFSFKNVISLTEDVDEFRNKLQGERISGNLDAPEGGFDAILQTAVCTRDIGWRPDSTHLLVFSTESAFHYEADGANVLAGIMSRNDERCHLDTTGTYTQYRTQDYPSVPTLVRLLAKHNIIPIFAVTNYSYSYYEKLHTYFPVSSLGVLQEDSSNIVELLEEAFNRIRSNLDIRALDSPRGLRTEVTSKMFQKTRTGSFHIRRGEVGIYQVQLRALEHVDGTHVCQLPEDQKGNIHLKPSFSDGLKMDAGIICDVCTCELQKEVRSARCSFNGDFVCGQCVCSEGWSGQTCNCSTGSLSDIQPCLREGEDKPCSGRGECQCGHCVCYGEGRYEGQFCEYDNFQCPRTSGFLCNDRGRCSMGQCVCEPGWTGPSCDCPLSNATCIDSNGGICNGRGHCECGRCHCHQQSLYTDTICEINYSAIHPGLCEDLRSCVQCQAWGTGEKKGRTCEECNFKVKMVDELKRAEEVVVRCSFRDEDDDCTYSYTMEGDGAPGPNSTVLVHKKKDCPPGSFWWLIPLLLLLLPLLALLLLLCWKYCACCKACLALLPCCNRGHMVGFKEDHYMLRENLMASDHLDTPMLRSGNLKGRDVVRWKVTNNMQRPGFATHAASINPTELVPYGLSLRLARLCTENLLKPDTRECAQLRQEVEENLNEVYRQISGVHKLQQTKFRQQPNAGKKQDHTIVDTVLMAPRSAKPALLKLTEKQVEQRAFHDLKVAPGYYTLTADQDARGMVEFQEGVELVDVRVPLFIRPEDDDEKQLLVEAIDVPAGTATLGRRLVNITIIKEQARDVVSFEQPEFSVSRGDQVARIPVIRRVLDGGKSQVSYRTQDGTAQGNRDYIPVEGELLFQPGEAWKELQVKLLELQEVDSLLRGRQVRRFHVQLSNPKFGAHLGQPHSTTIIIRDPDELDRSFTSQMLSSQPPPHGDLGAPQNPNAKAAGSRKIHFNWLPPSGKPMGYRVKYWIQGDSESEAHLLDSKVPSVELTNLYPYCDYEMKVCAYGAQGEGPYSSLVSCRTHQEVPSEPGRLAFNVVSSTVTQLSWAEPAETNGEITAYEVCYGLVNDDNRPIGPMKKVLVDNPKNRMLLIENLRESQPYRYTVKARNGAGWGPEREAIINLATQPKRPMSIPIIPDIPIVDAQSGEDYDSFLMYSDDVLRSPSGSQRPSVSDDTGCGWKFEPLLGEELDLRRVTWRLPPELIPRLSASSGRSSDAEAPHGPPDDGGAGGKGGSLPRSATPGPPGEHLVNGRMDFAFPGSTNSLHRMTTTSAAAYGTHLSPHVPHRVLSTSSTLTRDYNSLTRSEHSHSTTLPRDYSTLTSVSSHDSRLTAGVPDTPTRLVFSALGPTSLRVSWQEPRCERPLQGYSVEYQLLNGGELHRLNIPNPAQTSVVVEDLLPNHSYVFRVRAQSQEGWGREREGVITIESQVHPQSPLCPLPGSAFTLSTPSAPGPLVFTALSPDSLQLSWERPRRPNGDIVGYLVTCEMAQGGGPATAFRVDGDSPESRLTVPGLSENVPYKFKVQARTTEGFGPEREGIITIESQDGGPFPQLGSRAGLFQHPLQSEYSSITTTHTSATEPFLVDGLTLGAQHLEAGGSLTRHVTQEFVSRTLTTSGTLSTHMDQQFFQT
Protocol: Immunostaining. OCT-frozen tissues were cut in 10 µm sections, paraffin-embedded tissues in 5 µm sections. For immunostaining of cell lines, 10^4 cells were plated on a SuperFrost Plus glass slide (Menzel-Glaser, Braunschweig, Germany) and were grown for 24 hours followed by fixation in 4% paraformaldehyde in PBS for 5 minutes at room temperature. Immunostaining was performed according to standard protocols. Fluorescent images were acquired with either a DMIRE2 confocal microscope or with a DMI 3000D microscope equipped with a DFC 360FX digital camera (all from Leica. Visible images were acquired with either an EC3 Leica (immunostaining of frozen tissues) or a High-Performance IEEE 1394 FireWire Digital CCD Camera (QIMAGING, Surrey, BC, Canada) (immunostaining of paraffin-embedded tissues). For the quantification of specific fluorescent signals, 3 confocal images (1024x1024 pixels, equivalent to 375x375 µm) for each sample, acquired by keeping all the parameters constant, were divided in two 8-bit images corresponding to the red and green fluorescence channels. […]
Animal models of human metastatic CRC. […] Mice were strictly monitored until completely awake, and oral ampicillin was administered for 5 days following the surgery. […] External metastatic areas were quantified using ImageJ software.

[4] = tested on: U293 cells stably overexpressing E-cadherin, α6 integrin or both; test: Cell proliferation assay (crystal violet); assay type: cell-based, human; settings: 100 µM peptide, 10% FCS, versus control peptide
Excerpt: Preparation of cells stably overexpressing the MTS-targeted proteins. The cDNA of FLAG-tagged human angiopoietin-like 6, inserted into pcDNA3.1 (+).Neo vector (pcDNA3.ANGL6), was a gift from Dr. Y. Oike (Japan Science and Technology Agency, Japan (Minn et al., 2007, Proc Natl Acad Sci USA, 104:6740-6745); the cDNA of human E-cadherin, cloned into a pcDNA3.1 (+). Neo vector (pcDNA3.CAD1) was a gift from Dr. C. Gottardi (North Western University Medical School, Chicago, IL (Bos, et al. 2009, Nature 459:1005-1009); the cDNA of β4 integrin, cloned into a PRK5 plasmid (pRK5.ITB4), was purchased from Addgene (Cambridge, MA); the cDNA of human α6A integrin, inserted in pLXSN plasmid (pLα6SN (Kuo et al. 1995, Proc Natl Acad Sci USA, 92:12085-12089), was a gift of Dr. A. Magrelli (La Sapienza University, Rome, Italy). The latter was PCR-amplified with the following primer pair: • 5'-[…]-3' (SEQ ID No 28) and • 5'-[…]-3' (SEQ ID No 29) and subcloned into a pcDNA3.1 (+). […]
To test the effects of peptides on cell proliferation, we seeded 2x10^4 cells per well in a 24-well plate, in the presence of either control or […] peptide (100 µM). […] Cell growth was evaluated by absorbance at 590 nm in a microplate reader (Perkin Elmerm Waltham, MA). A calibration curve was set up with known numbers of cells and a linear correlation between absorbance and cell counts was established up to 5x10^5 cells/well.

NCI-H630 cells [5] = test: Cell adhesion to peptides and proteins coated on microwells; assay type: cell-based, human
Excerpt: Preparation of cell lines with silenced expression of the MTS-tageted genes. A transient gene silencing approach was applied to cells used exclusively for short-term, in vitro experiments. NCI-H630 cells were transduced with ON-TARGETplus SmartPOOL siRNA for ITGA6 and CDH1, or with control siRNA (Dharmacon, Lafayette, CO). For each experimental point, 2x10^5 cells were reverse-transfected with either control, ITGA6, CDH1, or both siRNA pools, according to the manufacturer's protocol. To quantify the downmodulation of targeted genes, RNA and protein levels were evaluated after 24 and 72 hours, respectively. A stable gene silencing approach was preferred for cells used for long-term, in vivo experiments. For this purpose, 2x10^5 HCT-116m, SW-48, HT-29, or DLD-1 cells were transfected with shRNA plasmid pools targeting ITGA6 (sc-43129-SH) or CDH1 (sc-35242-SH), or with non-targeting control shRNA plasmid pool A (sc-108060) (all from Santa Cruz Biotechnologies), according to the manufacturer's protocol. Following selection in medium supplemented with 2.5 µg/ml puromycin, 6 clones for each experimental point were subjected to dotblot analysis to confirm selective protein down-regulation. […]
(§2) Adhesion, proliferation, and migration assays. […] Adhered cells were counted manually under a light microscope.

β4 integrin = target: T2, β4 integrin (Homo sapiens, UniProt P16144+P23229); test: Affinity purification of liver metastasis lysates on column-immobilized peptide, ELISA for integrin subunits; assay type: binding; settings: lysates of 7 pooled human liver metastases, versus salt and control peptide fractions
T2 construct: from tissue; host or cells: 7 pooled human liver metastases secondary to CRC
T2 sequence (P16144 28-1822): as the sequence (P16144 28-1822 partner) above
T2 sequence (P23229 24-1073 isoform P23229-2 limits assumed): as the sequence (P23229 24-1073 isoform P23229-2 limits assumed) above
Protocol: Validation of MTS-phage targets. Binding of single phage clones on whole cells was performed with a 10^9 TU input of each phage on 5x10^5 suspended cells in binding medium as described (Chambers et al. 2002. Nat Rev Cancer, 2:563-572). For overlay binding experiments, 5 x10^9 TU/ml of each phage was incubated with 10 µm tissue sections of OCT-frozen tissues and detected as described , with the EnVision system (DAKO) and 3-amino-9-ethylcarbazole (AEC) as substrate (Arap et al 2002, Nat Med, 8:121-127; Padua et al. 2008, Cell, 133:66-77). Phage overlay images were acquired with an EC3 Leica camera (Leica Microsystems, Milan, Italy). […] Protein amounts in collected fractions were followed by reading their OD at 280 nm, and selected fractions were concentrated by the use of Microcon centrifugal filter devices with cut-off 10,000 (Millipore) to remove residual synthetic peptides. Proteins were quantified with the Coomassie (Bradford) Protein Assay Kit (Pierce), and 500 ng of each sample was evaluated for the presence of specific integrin subunits with a standard ELISA assay. In parallel, the relative amount of targeted proteins was assessed by phage binding as described (66), on 2 µg of each sample and with an input of 10^9 TU of fd-tet or […]-phage. […]

HCT-116m [6] = test: Liver adhesion assay on frozen sections of grossly normal human liver; assay type: cell-based; settings: 30 minutes, versus control peptide
Protocol: (§3) Adhesion, proliferation, and migration assays. All the described in vitro tests were performed at least in triplicate. For investigation of cell adhesion to peptides and proteins, 1 µg of each substrate was incubated per well of a 96 well-plate for 1 hour at 37°C. After a blocking step in IMDM, 2% FCS for 1 hour at 37°C, 10^4 cells were allowed to adhere for 1 hour at 37°C. Samples were washed gently in PBS, and cells were fixed in 8% glutaraldehyde and stained in 0.25% crystal violet in 10% methanol. For tissue adhesion, OCT-frozen grossly normal liver samples were cut into 10 µm sections. Tissues were blocked in IMDM, 2% FCS for 30 minutes at 37°C, followed by incubation with 5x10^4 cells in 5% CO2 at 37°C, for the indicated periods of time. Samples were washed 4 times in the same medium and once in PBS, fixed in 4% para-formaldehyde, and stained with hematoxylin (BioOptica). Adhered cells were counted manually under a light microscope.

DLD-1 [7] = test: as above; assay type: cell-based; settings: 30 minutes, versus control peptide
Protocol: as §3

HT-29 = test: as above; assay type: cell-based; settings: 30 minutes, versus control peptide
Protocol: as §3

HCT-116 cells = test: as above; assay type: cell-based; settings: non-metastatic cells with very low levels of the receptor proteins; 30 minutes
Protocol: as §3

SW-48 [8] = test: as above; assay type: cell-based; settings: 30 minutes, versus control peptide
Protocol: as §3

NCI-H630 cells [9] = test: as above; assay type: cell-based; settings: liver sections from 27 patients, 30 minutes, versus control peptide
Protocol: as §3

[10] = tested on: U293 cells transduced with α6 integrin, E-cadherin or both; test: as above; assay type: cell-based; settings: 30 minutes, versus control peptide
Excerpt: Preparation of cells stably overexpressing the MTS-targeted proteins. The cDNA of FLAG-tagged human angiopoietin-like 6, inserted into pcDNA3.1 (+).Neo vector (pcDNA3.ANGL6), was a gift from Dr. Y. Oike (Japan Science and Technology Agency, Japan (Minn et al., 2007, Proc Natl Acad Sci USA, 104:6740-6745); the cDNA of human E-cadherin, cloned into a pcDNA3.1 (+). Neo vector (pcDNA3.CAD1) was a gift from Dr. C. Gottardi (North Western University Medical School, Chicago, IL (Bos, et al. 2009, Nature 459:1005-1009); the cDNA of β4 integrin, cloned into a PRK5 plasmid (pRK5.ITB4), was purchased from Addgene (Cambridge, MA); the cDNA of human α6A integrin, inserted in pLXSN plasmid (pLα6SN (Kuo et al. 1995, Proc Natl Acad Sci USA, 92:12085-12089), was a gift of Dr. A. Magrelli (La Sapienza University, Rome, Italy). The latter was PCR-amplified with the following primer pair: • 5'-[…]-3' (SEQ ID No 28) and • 5'-[…]-3' (SEQ ID No 29) and subcloned into a pcDNA3.1 (+). Hygro vector between HindIII and ApaI sites to obtain the pcDNA3.ITA6A plasmid. […]
as §2

CGIYRLRSC [Targeting synthetic LRS-motif peptide, from New England Peptides]
liver tumors (external tumor areas) (LS-174T cells): significant reduction of liver tumors
homing of CRC cells to the liver (external metastatic areas) (LS-174T): diminished homing of CRC cells to the liver, which was significant
homing of CRC cells to the liver (external metastatic areas) (HCCM-1544): diminished homing of CRC cells to the liver, which was significant
homing of CRC cells to the liver (external metastatic areas) (HCT-116m [1]): diminished homing of CRC cells to the liver, which was significant
homing of CRC cells to the liver (external metastatic areas) (DLD-1 [2]): diminished homing of CRC cells to the liver
homing of CRC cells to the liver (external metastatic areas) (SW-48 [3]): diminished homing of CRC cells to the liver, which was significant
overall morphology and levels of receptor complex in the tumors (α6 integrin/E-cadherin): unchanged
proliferation [4]: no effects
adherence of cells to microwells coated with the peptide (NCI-H630 cells [5]; NCI-H630 cells in which ITGA6 or both mRNAs were silenced, 1 µg substrate per well, 1 hour): impaired adherence
adherence of cells to microwells coated with the peptide (NCI-H630 cells [5]; NCI-H630 cells with both α6 integrin and E-cadherin downmodulated): particularly pronounced
enrichment of integrin subunit in peptide- and phage-targeted protein fractions (β4 integrin): substantial enrichment in the β4 subunit
adhesiveness on hepatic tissues (HCT-116m [6]): significantly inhibited
adhesiveness on hepatic tissues (DLD-1 [7]): significantly inhibited
adhesiveness on hepatic tissues (HT-29): significantly inhibited
adhesion to normal hepatic tissues (HCT-116 cells): not influenced
adhesiveness on hepatic tissues (SW-48 [8]): significantly inhibited
cell adhesion to human liver sections (NCI-H630 cells [9]): significant decrease in cell adhesion
liver adhesion [10]: inhibited liver adhesion of U293 cells only when they concomitantly expressed α6 integrin and E-cadherin
